One assay concerns the target T1, human factor XIa (Homo sapiens, UniProt P03951).
T1 construct: purchased Kordia
In words: Measurement of FXIa inhibition (fluorogenic peptide substrate Boc-Glu(OBzl)-Ala-Arg-AMC). The class given is biochemical. Particulars: factor XIa from Kordia 0.45 nM, 15 min pre-incubation, 30 min at 22° C., fluorescence.

The test system of a further assay is human and animal plasma. As to the kind of experiment: Determination of anticoagulatory activity: activated partial thromboplastin time (aPTT) in plasma. Particulars: concentration of test substance which brings about a 1.5-fold extension of the aPTT; plasma in vitro, C.K. Prest kit. In outline:
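Citrated plasma (human, mouse, rat, rabbit, pig, dog) incubated with varying compound concentrations and cephalin/kaolin PTT reagent for 3 minutes at 37° C.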

Structures can show the parent of a compound that is named as a salt.

T1 sequence (P03951 388-625 limits assumed): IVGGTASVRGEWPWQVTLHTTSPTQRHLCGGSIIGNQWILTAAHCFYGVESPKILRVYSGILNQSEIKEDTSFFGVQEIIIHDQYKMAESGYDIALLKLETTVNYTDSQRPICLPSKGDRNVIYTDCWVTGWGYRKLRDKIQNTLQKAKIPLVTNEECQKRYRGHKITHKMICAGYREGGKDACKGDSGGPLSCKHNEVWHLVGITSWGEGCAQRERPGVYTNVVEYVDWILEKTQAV
T1 sequence (P03951 19-387 partner limits assumed): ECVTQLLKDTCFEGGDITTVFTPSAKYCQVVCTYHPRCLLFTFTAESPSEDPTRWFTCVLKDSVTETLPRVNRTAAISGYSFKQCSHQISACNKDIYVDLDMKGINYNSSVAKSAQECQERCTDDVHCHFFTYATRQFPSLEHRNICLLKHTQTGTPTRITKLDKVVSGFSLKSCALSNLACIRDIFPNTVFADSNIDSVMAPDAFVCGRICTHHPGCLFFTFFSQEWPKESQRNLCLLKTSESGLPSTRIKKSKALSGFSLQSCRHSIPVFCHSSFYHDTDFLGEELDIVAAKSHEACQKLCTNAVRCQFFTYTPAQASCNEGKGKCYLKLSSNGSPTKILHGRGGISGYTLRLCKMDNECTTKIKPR

For `NC[C@H]1CC[C@H](C(=O)N[C@@H](Cc2cccc(-c3ccccc3S(=O)(=O)N3CCOCC3)c2)C(=O)Nc2ccc(-c3nn[nH]n3)cc2)CC1` [Example 54, trans-4-(Aminomethyl)-N-[(2S)-3-[2′-(morpholin-4-ylsulphonyl)biphenyl-3-yl]-1-oxo-1-{[4-(2H-tetrazol-5-yl)phenyl]amino}propan-2-yl]cyclohexanecarboxamide hydrochloride], the concentration for half-maximal inhibition (IC50) against human factor XIa turned out to be 1.9 nM. Moreover, the aPTT in the assay on human and animal plasma came to 0.28 µmol/L.
For the molecule `Cc1cc(S(=O)(=O)NC2CCNCC2)ccc1-c1cccc(C[C@H](NC(=O)[C@H]2CC[C@H](CN)CC2)C(=O)Nc2ccc(-c3nnc(Cl)[nH]3)cc2)c1` [Example 55, trans-4-(Aminomethyl)-N-{(2S)-1-{[4-(3-chloro-4H-1,2,4-triazol-5-yl)phenyl]amino}-3-[2′-methyl-4′-(piperidin-4-ylsulphamoyl)biphenyl-3-yl]-1-oxopropan-2-yl}cyclohexanecarboxamide hydrochloride], the half-maximal inhibitory concentration (IC50) against human factor XIa came to 4.3 nM. Moreover, the aPTT in the assay on human and animal plasma came out at 0.14 µmol/L.
For `COc1ccc(C[C@H](NC(=O)[C@H]2CC[C@H](CN)CC2)C(=O)Nc2ccc(-c3nn[nH]n3)cc2)cc1-c1ccc(C(=O)NC2CCNCC2)cc1C` [Example 56, 5′-[(2S)-2-({[trans-4-(Aminomethyl)cyclohexyl]carbonyl}amino)-3-oxo-3-{[4-(2H-tetrazol-5-yl)phenyl]amino}propyl]-2′-methoxy-2-methyl-N-(piperidin-4-yl)biphenyl-4-carboxamide hydrochloride], in that order: 15 nM and 0.28 µmol/L.
`COc1ccc(C[C@H](NC(=O)[C@H]2CC[C@H](CN)CC2)C(=O)Nc2ccc(-c3nn[nH]n3)cc2)cc1-c1ccc(C(=O)N[C@@H]2CCNC2)cc1C` [Example 57, 5′-[(2S)-2-({[trans-4-(Aminomethyl)cyclohexyl]carbonyl}amino)-3-oxo-3-{[4-(2H-tetrazol-5-yl)phenyl]amino}propyl]-2′-methoxy-2-methyl-N-[(3R)-pyrrolidin-3-yl]biphenyl-4-carboxamide hydrochloride] showed an IC50 against human factor XIa of 17 nM. In addition, the aPTT in the assay with human and animal plasma was determined as 0.3 µmol/L.
Consider `COc1ccc(C[C@H](NC(=O)[C@H]2CC[C@H](CN)CC2)C(=O)Nc2ccc(-c3nn[nH]n3)cc2)cc1-c1ccc(C(=O)NCCN)cc1C` [Example 58, N-(2-Aminoethyl)-5′-[(2S)-2-({[trans-4-(aminomethyl)cyclohexyl]carbonyl}amino)-3-oxo-3-{[4-(2H-tetrazol-5-yl)phenyl]amino}propyl]-2′-methoxy-2-methylbiphenyl-4-carboxamide hydrochloride], for which, at human factor XIa, the midpoint of inhibition, the IC50, lay at 17 nM. In the assay with human and animal plasma, the aPTT came out at 0.3 µmol/L.
The corresponding values for `CN(C)CCCOc1ccc(-c2cccc(C[C@H](NC(=O)[C@H]3CC[C@H](CN)CC3)C(=O)Nc3ccc(-c4nnn[nH]4)cc3)c2)cn1` [Example 59, N-alpha-{[trans-4-(Aminomethyl)cyclohexyl]carbonyl}-3-{6-[3-(dimethylamino)propoxy]pyridin-3-yl}-N-[4-(1H-tetrazol-5-yl)phenyl]-L-phenylalaninamide hydrochloride] are 7.2 nM and 0.19 µmol/L.
As for `Cc1ccc(S(=O)(=O)NCc2ccccc2)cc1-c1cccc(C[C@H](NC(=O)[C@H]2CC[C@H](CN)CC2)C(=O)Nc2ccc(-c3noc(=O)[nH]3)cc2)c1` [Example 60, trans-4-(Aminomethyl)-N-[(2S)-3-[5′-(benzylsulphamoyl)-2′-methylbiphenyl-3-yl]-1-oxo-1-{[4-(5-oxo-4,5-dihydro-1,2,4-oxadiazol-3-yl)phenyl]amino}propan-2-yl]cyclohexanecarboxamide hydrochloride], at human factor XIa, the IC50 amounted to 1.4 nM. In addition, the aPTT in the assay on human and animal plasma turned out to be 0.21 µmol/L.
Molecule `NC[C@H]1CC[C@H](C(=O)N[C@@H](Cc2cccc(-c3cccc(C(=O)NCCN4CCCC4)c3)c2)C(=O)Nc2ccc(-c3nnn[nH]3)cc2)CC1` [Example 61, 3′-[(2S)-2-({[trans-4-(Aminomethyl)cyclohexyl]carbonyl}amino)-3-oxo-3-{[4-(1H-tetrazol-5-yl)phenyl]amino}propyl]-N-[2-(pyrrolidin-1-yl)ethyl]biphenyl-3-carboxamide hydrochloride] showed an IC50 on human factor XIa of 12 nM. Besides, the aPTT in the assay with human and animal plasma came to 0.37 µmol/L.
Turning to `CNC(=O)c1ccc(F)c(-c2cccc(C[C@H](NC(=O)[C@H]3CC[C@H](CN)CC3)C(=O)Nc3ccc(-c4nnn[nH]4)cc3)c2)c1` [Example 62, 3′-[(2S)-2-({[trans-4-(Aminomethyl)cyclohexyl]carbonyl}amino)-3-oxo-3-{[4-(1H-tetrazol-5-yl)phenyl]amino}propyl]-6-fluoro-N-methylbiphenyl-3-carboxamide hydrochloride], on human factor XIa, the IC50 was 6.2 nM. The molecule also displayed an aPTT in the assay with human and animal plasma of 0.48 µmol/L.
For `Cc1cc(C(=O)NC2CCC(N(C)C)CC2)ccc1-c1cccc(C[C@H](NC(=O)[C@H]2CC[C@H](CN)CC2)C(=O)Nc2ccc(-c3nnn[nH]3)c(F)c2)c1` (stereo partly drawn) [Example 64, 3′-[(2S)-2-({[trans-4-(Aminomethyl)cyclohexyl]carbonyl}amino)-3-{[3-fluoro-4-(1H-tetrazol-5-yl)phenyl]amino}-3-oxopropyl]-N-[4-(dimethylamino)cyclohexyl]-2-methylbiphenyl-4-carboxamide hydrochloride], in that order: 5.2 nM and 0.12 µmol/L.
For `Cc1nc(N)ccc1-c1cccc(C[C@H](NC(=O)[C@H]2CC[C@H](CN)CC2)C(=O)Nc2ccc(-c3nnn[nH]3)cc2)c1` [Example 66, N-alpha-{[trans-4-(Aminomethyl)cyclohexyl]carbonyl}-3-(6-amino-2-methylpyridin-3-yl)-N-[4-(1H-tetrazol-5-yl)phenyl]-L-phenylalaninamide hydrochloride], in that order: 3.3 nM and 0.12 µmol/L.
`NC[C@H]1CC[C@H](C(=O)N[C@@H](Cc2cccc(-c3cnc(N4CCNCC4)nc3)c2)C(=O)Nc2ccc3[nH]c(=O)[nH]c3c2)CC1` [Example 67, N-alpha-{[trans-4-(Aminomethyl)cyclohexyl]carbonyl}-N-(2-oxo-2,3-dihydro-1H-benzimidazol-5-yl)-3-[2-(piperazin-1-yl)pyrimidin-5-yl]-L-phenylalaninamide hydrochloride] showed an IC50 against human factor XIa of 37 nM. The molecule also had an aPTT with human and animal plasma of 0.15 µmol/L.
The corresponding values for `NC[C@H]1CC[C@H](C(=O)N[C@@H](Cc2cccc(-c3cnc(N4CCNCC4)nc3)c2)C(=O)Nc2ccc(-c3nnn[nH]3)cc2)CC1` [Example 68, N-alpha-{[trans-4-(Aminomethyl)cyclohexyl]carbonyl}-3-[2-(piperazin-1-yl)pyrimidin-5-yl]-N-[4-(1H-tetrazol-5-yl)phenyl]-L-phenylalaninamide hydrochloride] are 7.3 nM and 0.18 µmol/L.
Turning to `CN(C)c1ncc(-c2cccc(C[C@H](NC(=O)[C@H]3CC[C@H](CN)CC3)C(=O)Nc3ccc(-c4nnn[nH]4)cc3)c2)cn1` [Example 70, N-alpha-{[trans-4-(Aminomethyl)cyclohexyl]carbonyl}-3-[2-(dimethylamino)pyrimidin-5-yl]-N-[4-(1H-tetrazol-5-yl)phenyl]-L-phenylalaninamide hydrochloride], inhibition against human factor XIa was half-maximal at 2.9 nM (IC50). Besides, the aPTT in the assay on human and animal plasma was found to be 0.36 µmol/L.
The corresponding values for `CN(C)c1ncc(-c2cccc(C[C@H](NC(=O)[C@H]3CC[C@H](CN)CC3)C(=O)Nc3ccc(-c4nnn[nH]4)cc3)c2)c(OCc2ccccc2)n1` [Example 78, N-alpha-{[trans-4-(Aminomethyl)cyclohexyl]carbonyl}-3-[4-(benzyloxy)-2-(dimethylamino)pyrimidin-5-yl]-N-[4-(1H-tetrazol-5-yl)phenyl]-L-phenylalaninamide hydrochloride] are 2.3 nM and 0.19 µmol/L.
For `NC[C@H]1CC[C@H](C(=O)N[C@@H](Cc2cccc(-c3cnc(N)nc3)c2)C(=O)Nc2ccc(-c3nnn[nH]3)cc2)CC1` [Example 79, N-alpha-{[trans-4-(Aminomethyl)cyclohexyl]carbonyl}-3-(2-aminopyrimidin-5-yl)-N-[4-(1H-tetrazol-5-yl)phenyl]-L-phenylalaninamide hydrochloride], inhibition against human factor XIa was half-maximal at 2.3 nM (IC50). The aPTT in the assay with human and animal plasma is 0.14 µmol/L.
For `Cc1cnccc1-c1cccc(C[C@H](NC(=O)[C@H]2CC[C@H](CN)CC2)C(=O)Nc2ccc(-c3nnn[nH]3)cc2)c1` [Example 80, N-alpha-{[trans-4-(Aminomethyl)cyclohexyl]carbonyl}-3-(3-methylpyridin-4-yl)-N-[4-(1H-tetrazol-5-yl)phenyl]-L-phenylalaninamide hydrochloride], the IC50 against human factor XIa is 2.4 nM. In the assay on human and animal plasma, the aPTT turned out to be 0.25 µmol/L.
The corresponding values for `NC[C@H]1CC[C@H](C(=O)N[C@@H](Cc2cccc(-c3cccnc3C(F)(F)F)c2)C(=O)Nc2ccc(-c3nnn[nH]3)cc2)CC1` [Example 81, N-alpha-{[trans-4-(Aminomethyl)cyclohexyl]carbonyl}-N-[4-(1H-tetrazol-5-yl)phenyl]-3-[2-(trifluoromethyl)pyridin-3-yl]-L-phenylalaninamide hydrochloride] are 2.5 nM and 0.3 µmol/L.
For `NC[C@H]1CC[C@H](C(=O)N[C@@H](Cc2cccc(-c3cnc(NC4CC4)nc3)c2)C(=O)Nc2ccc(-c3nnn[nH]3)cc2)CC1` [Example 82, N-alpha-{[trans-4-(Aminomethyl)cyclohexyl]carbonyl}-3-[2-(cyclopropylamino)pyrimidin-5-yl]-N-[4-(1H-tetrazol-5-yl)phenyl]-L-phenylalaninamide hydrochloride], half-maximal inhibition at human factor XIa (IC50) was put at 3.4 nM. The molecule further had an aPTT in the assay with human and animal plasma of 0.14 µmol/L.
`Cc1ccc2[nH]ncc2c1-c1cccc(C[C@H](NC(=O)[C@H]2CC[C@H](CN)CC2)C(=O)Nc2ccc(-c3nnn[nH]3)cc2)c1` [Example 83, N-alpha-{[trans-4-(Aminomethyl)cyclohexyl]carbonyl}-3-(5-methyl-1H-indazol-4-yl)-N-[4-(1H-tetrazol-5-yl)phenyl]-L-phenylalaninamide hydrochloride] gave an IC50 on human factor XIa of 1.3 nM. The aPTT in the assay on human and animal plasma turned out to be 0.17 µmol/L.

Broadly, the IC50 is the concentration that inhibits the measured activity by half. Read a high IC50 as weaker potency.

The values are drawn from US20160244437A1, “SUBSTITUTED PHENYLALANINE DERIVATIVES” (BAYER PHARMA AKTIENGESELLSCHAFT, priority 2013, published 2016).
